Biological target: S. pneumoniae Topoisomerase IV ATPase (ParE) (Streptococcus pneumoniae serotype 4, UniProt Q59961)
Assay: S. pneumoniae Topoisomerase IV ATPase inhibition
Type: biochemical
Settings: values marked * are an average of two or more data points, read-out: % Inh (13 μM) of S. pneumoniae Topoisomerase IV ATPase
Outline: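 S. pneumoniae ParE (1.25 nM) ATPase with 160 μM ATP and 5 μg/ml sheared DNA in pH 8.0 Tris, Mg2+, DTT, Brij-35; phosphate detected by malachite green/molybdate at 650 nm. Normalised to 2% DMSO (0%) and 20 μM EDTA (100%); IC50 from 10 concentrations.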

S. pneumoniae Topoisomerase IV ATPase (ParE), sequence (Q59961 whole entry): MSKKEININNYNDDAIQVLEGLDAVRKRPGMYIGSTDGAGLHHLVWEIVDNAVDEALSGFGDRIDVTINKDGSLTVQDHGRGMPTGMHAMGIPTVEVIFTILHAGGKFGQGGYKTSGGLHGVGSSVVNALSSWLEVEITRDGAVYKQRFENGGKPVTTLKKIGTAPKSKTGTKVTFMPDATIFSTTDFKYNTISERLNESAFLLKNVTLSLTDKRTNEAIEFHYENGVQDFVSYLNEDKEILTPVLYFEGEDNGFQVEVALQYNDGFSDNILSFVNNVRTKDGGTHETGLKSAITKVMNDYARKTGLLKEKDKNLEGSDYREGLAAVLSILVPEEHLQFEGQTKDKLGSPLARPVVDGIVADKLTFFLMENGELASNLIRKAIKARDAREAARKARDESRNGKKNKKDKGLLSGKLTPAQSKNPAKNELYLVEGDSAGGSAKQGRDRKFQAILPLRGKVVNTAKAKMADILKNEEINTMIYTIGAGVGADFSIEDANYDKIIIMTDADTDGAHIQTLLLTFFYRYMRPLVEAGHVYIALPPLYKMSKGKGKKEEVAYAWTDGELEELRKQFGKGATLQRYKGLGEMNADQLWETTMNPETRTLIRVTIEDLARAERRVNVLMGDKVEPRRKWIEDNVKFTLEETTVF

| Structure (SMILES) | inhibition at 13 µM |
| --- | --- |
| CCOC(=O)c1cncc(-c2cnc(Nc3ccc(F)c(Cl)c3)nc2NC(C)C)c1 [Example 116, ethyl 5-[2-[(3-chloro-4-fluorophenyl)amino]-4-(propan-2-ylamino)pyrimidin-5-yl]pyridine-3-carboxylate] | 82% |
| COc1cc(F)cc(Nc2ncc(-c3cnc(OC)c(C(=O)O)c3)c(-n3ccc(C(F)(F)F)n3)n2)c1 [Example 923, 5-(2-(3-fluoro-5-methoxyphenylamino)-4-(3-(trifluoromethyl)-1H-pyrazol-1-yl)pyrimidin-5-yl)-2-methoxynicotinic acid] | 100% |
| Cc1[nH]ncc1CCCNc1nc(Nc2ccc(F)c(Cl)c2)ncc1-c1cncc(C(=O)O)c1 [Example 274, 5-(2-(3-chloro-4-fluorophenylamino)-4-(3-(5-methyl-1H-pyrazol-4-yl)propylamino)pyrimidin-5-yl)nicotinic acid] | 88% |
| CNc1ncc(-c2cnc(Nc3cc(OC)cc(OC)c3)nc2-n2nc(C(F)(F)F)cc2C)cc1C(=O)O [Example 591, 5-(2-(3,5-dimethoxyphenylamino)-4-(5-methyl-3-(trifluoromethyl)-1H-pyrazol-1-yl)pyrimidin-5-yl)-2-(methylamino)nicotinic acid] | 100% |
| COc1cc(C)cc(Nc2ncc(-c3cc(C(=O)O)c(=O)n(C)c3)c(-n3ccc(C(F)(F)F)n3)n2)c1 [Example 859, 5-{2-[(3-methoxy-5-methylphenyl)amino]-4-[3-(trifluoromethyl)-1H-pyrazol-1-yl]pyrimidin-5-yl}-1-methyl-2-oxo-1,2-dihydropyridine-3-carboxylic acid] | 100% |
| O=C(O)c1cc(-c2cnc(Nc3ccc(F)c(Cl)c3)nc2-n2ccc(C(F)(F)F)n2)cn(CCN2CCOCC2)c1=O [Example 1075, 5-(2-(3-Chloro-4-fluorophenylamino)-4-(3-(trifluoromethyl)-1H-pyrazol-1-yl)pyrimidin-5-yl)-1-(2-morpholinoethyl)-2-oxo-1,2-dihydropyridine-3-carboxylic acid] | 97% |
| CCOC(=O)c1cncc(-c2cnc(Nc3ccc(F)c(Cl)c3)nc2NCCNC(C)=O)c1 [Example 94, 5-[4-(2-Acetylamino-ethylamino)-2-(3-chloro-4-fluoro-phenylamino)-pyrimidin-5-yl]-nicotinic acid ethyl ester] | 77.5% |
| O=C(O)c1cc2cc(-c3cnc(Nc4ccc(F)c(Cl)c4)nc3N3CCOCC3)ccc2s1 [Example 306, 5-(2-(3-chloro-4-fluorophenylamino)-4-morpholinopyrimidin-5-yl)benzo[b]thiophene-2-carboxylic acid] | 84.8% |
| CCCNc1nc(Nc2ccc(F)c(Cl)c2)ncc1-c1cncnc1 [Example 33, N^2-(3-chloro-4-fluorophenyl)-N^4-propyl-5-pyrimidin-5-ylpyrimidine-2,4-diamine] | 81% |
| CCS(=O)(=O)NC(=O)c1cc(-c2cnc(Nc3cc(OC)cc(OC)c3)nc2-n2nc(C(F)(F)F)cc2C)cn(CCOC)c1=O [Example 1162, 5-(2-(3,5-dimethoxyphenylamino)-4-(5-methyl-3-(trifluoromethyl)-1H-pyrazol-1-yl)pyrimidin-5-yl)-N-(ethylsulfonyl)-1-(2-methoxyethyl)-2-oxo-1,2-dihydropyridiine-3-carboxamide] | 100% |
| CCOC(=O)/C=C/c1cccc(-c2cnc(Nc3ccc(F)c(Cl)c3)nc2N2CCN(S(C)(=O)=O)CC2)c1 [Example 174, (E)-ethyl 3-(3-(2-(3-chloro-4-fluorophenylamino)-4-(4-(methylsulfonyl)piper-azin-1-yl)pyrimidin-5-yl)phenyl)acrylate] | 52.1% |
| O=C(O)c1cc(-c2cnc(Nc3ccc(F)c(Cl)c3)nc2-n2ccc(C(F)(F)F)n2)cn(CCO)c1=O [Example 1083, 5-(2-(3-Chloro-4-fluorophenylamino)-4-(3-(trifluoromethyl)-1H-pyrazol-1-yl)pyrimidin-5-yl)-1-(2-hydroxyethyl)-2-oxo-1,2-dihydropyridine-3-carboxylic acid] | 99% |
| COc1ncc(-c2cnc(Nc3ccc(F)c(Cl)c3)nc2NCc2cnn(C)c2C)cn1 [Example 469, N2-(3-chloro-4-fluorophenyl)-N4-((1,5-dimethyl-1H-pyrazol-4-yl)methyl)-2′-methoxy-5,5′-bipyrimidine-2,4-diamine] | 64% |
| COCCn1cc(-c2cnc(Nc3cc(OC)cc(OC)c3)nc2-n2nc(C(F)(F)F)cc2C)cc(C(=O)O)c1=O [Example 1160, 5-(2-(3,5-dimethoxyphenylamino)-4-(5-methyl-3-(trifluoromethyl)-1H-pyrazol-1-yl)pyrimidin-5-yl)-1-(2-methoxyethyl)-2-oxo-1,2-dihydropyridine-3-carboxylic acid] | 100% |
| O=C(O)/C=C/c1cccc(-c2cnc(Nc3cc(F)cc(F)c3)nc2-n2ccc(C(F)(F)F)n2)c1 [Example 619, (2E)-3-(3-{2-[(3,5-difluorophenyl)amino]-4-[3-(trifluoromethyl)-1H-pyrazol-1-yl]pyrimidin-5-yl}phenyl)prop-2-enoic acid] | 100% |
| N#Cc1cccc(Nc2ncc(-c3cccc(/C=C/C(=O)O)c3)c(-n3ccc(C(F)(F)F)n3)n2)c1 [Example 692, (2E)-3-(3-{2-[(3-cyanophenyl)amino]-4-[3-(trifluoromethyl)-1H-pyrazol-1-yl]pyrimidin-5-yl}phenyl)prop-2-enoic acid] | 97% |
| COc1ncc(-c2cnc(Nc3cc(C)ccc3F)nc2-n2ccc(C(F)(F)F)n2)cc1C(=O)O [Example 756, 5-{2-[(2-fluoro-5-methylphenyl)amino]-4-[3-(trifluoromethyl)-1H-pyrazol-1-yl]pyrimidin-5-yl}-2-methoxypyridine-3-carboxylic acid] | 56% |
| O=C(O)/C=C/c1cccc(-c2cnc(Nc3ccc(F)c(Cl)c3)nc2-n2cccn2)c1 [Example 1120, (E)-3-[3-[2-[(3-chloro-4-fluorophenyl)amino]-4-pyrazol-1-ylpyrimidin-5-yl]phenyl]prop-2-enoic acid] | 79% |
| CCNC(=O)c1ccc(-c2cnc(Nc3ccc(F)c(Cl)c3)nc2NCCCN(C)C)s1 [Example 367, 5-(2-(3-chloro-4-fluorophenylamino)-4-(3-(dimethylamino)propylamino)pyrimidin-5-yl)-N-ethylthiophene-2-carboxamide] | 104% |
| CCOC(=O)/C=C/c1cccc(-c2cnc(Nc3ccc(F)c(Cl)c3)nc2NCCCNC(=O)c2cnc(C)cn2)c1 [Example 165] | 56.9% |
| Cc1cc(C(F)(F)F)nn1-c1nc(Nc2ccc(F)c(Cl)c2)ncc1-c1cnc(OC(C)c2ccncc2)c(C(=O)O)c1 (stereo not drawn) [Example 791, 5-{2-[(3-chloro-4-fluorophenyl)amino]-4-[5-methyl-3-(trifluoromethyl)-1H-pyrazol-1-yl]pyrimidin-5-yl}-2-[1-(pyridin-4-yl)ethoxy]pyridine-3-carboxylic acid] | 97% |
| COc1cc(Nc2ncc(-c3cnc(OCCCS(C)(=O)=O)c(C(=O)NS(=O)(=O)C(F)(F)F)c3)c(-n3ccc(C(F)(F)F)n3)n2)cc(OC)c1 [Example 972, 5-(2-(3,5-dimethoxyphenylamino)-4-(3-(trifluoromethyl)-1H-pyrazol-1-yl)pyrimidin-5-yl)-2-(3-(methylsulfonyl)propoxy)-N-(trifluoromethylsulfonyl)nicotinamide] | 100% |
| COc1ncc(-c2cnc(Nc3cc(C)ccc3F)nc2-n2nc(C(F)(F)F)cc2C)cc1C(=O)O [Example 757, 5-{2-[(2-fluoro-5-methylphenyl)amino]-4-[5-methyl-3-(trifluoromethyl)-1H-pyrazol-01-yl]pyrimidin-5-yl}-2-methoxypyridine-3-carboxylic acid] | 19% |
| O=C(O)/C=C/c1cccc(-c2cnc(Nc3ccc(F)c(Cl)c3)nc2NCCc2c[nH]cn2)c1 [Example 264, (2E)-3-[3-(2-[(3-chloro-4-fluorophenyl)amino]-4-{[2-(1H-imidazol-4-yl)ethyl]amino}pyrimidin-5-yl)phenyl]prop-2-enoic acid] | 87.8% |
| CCOC(=O)c1cncc(-c2cnc(Nc3ccc(F)c(Cl)c3)nc2NCc2ccccn2)c1 [Example 95, 5-{2-(3-Chloro-4-fluoro-phenylamino)-4-[(pyridin-2-ylmethyl)-amino]-pyrimidin-5-yl}-nicotinic acid ethyl ester] | -0.48% |
| O=C(O)c1cncc(-c2cnc(Nc3ccc(F)c(Cl)c3)nc2N2CCC(F)CC2)c1 [Example 248, 5-[2-[(3-chloro-4-fluorophenyl)amino]-4-(4-fluoropiperidin-1-yl)pyrimidin-5-yl]pyridine-3-carboxylic acid] | 66.1% |
| COCCOc1ncc(-c2cnc(Nc3ccc(F)c(Cl)c3)nc2-n2nc(C(F)(F)F)cc2C)cc1C(=O)O [Example 1130, 5-(2-(3-chloro-4-fluorophenylamino)-4-(5-methyl-3-(trifluoromethyl)-1H-pyrazol-1-yl)pyrimidin-5-yl)-2-(2-methoxyethoxy)nicotinic acid] | 99% |
| O=C(O)c1cncc(-c2cnc(Nc3ccc(F)c(Cl)c3)nc2NCC2CCCO2)c1 (stereo not drawn) [Example 235, 5-[2-[(3-chloro-4-fluorophenyl)amino]-4-(oxolan-2-ylmethylamino)pyrimidin-5-yl]pyridine-3-carboxylic acid] | 81.2% |
| CCS(=O)(=O)NC(=O)c1cc(-c2cnc(Nc3cc(C)cc(C)c3)nc2-n2ccc(C(F)(F)F)n2)cnc1OC [Example 822, 5-{2-[(3,5-dimethylphenyl)amino]-4-[3-(trifluoromethyl)-1H-pyrazol-1-yl]pyrimidin-5-yl}-N-(ethylsulfonyl)-2-methoxypyridine-3-carboxamide] | 100% |
| O=C(O)c1cncc(-c2cnc(Nc3ccc(F)c(Cl)c3)nc2N[C@@H]2CCOC2)c1 [Example 279, (R)-5-(2-(3-chloro-4-fluorophenylamino)-4-(tetrahydrofuran-3-ylamino)pyrimidin-5-yl)nicotinic acid] | 80.4% |
